Consider two compounds from US20180200233A1, “COMPOSITIONS FOR PREVENTING CANCERS ASSOCIATED WITH HUMAN PAPILLOMA VIRUSES” (Loma Linda University, priority 2015, published 2018).

What all share (type): cell-based, human
Data set [1] concerns caspase 3/7 activity in SiHa cells. As to the kind of experiment: Caspase 3/7 activity assay in SiHa cells. The following applies: 100 μM myricetin or 50 μM spinacine 4 h, TRAIL 100 ng/ml + cycloheximide, 0-6 h. As for the experimental part:
FIGS. 4A-C are graphs showing that myricetin and spinacine (5) increased caspase 3/7 activity in SiHa cells following treatment with TRAIL and chemotherapy drugs. SiHa cells (2×10^4 cells per well) were seeded into a 96-well plate and allowed to incubate overnight, then pre-treated with 100 μM of myricetin or 50 μM of spinacine for 4 h. (FIG. 4A) TRAIL (100 ng/ml), along with cycloheximide (5 μg/ml), (FIG. 4B) cisplatin (50 μM), or (FIG. 4C) doxorubicin (2 μM) were added respectively. Caspase 3/7 activity was measured after 0, 1.5, 3, and 6 hours using the […] assay. Activity at 0 h of treatment was set at 100% for each group. […]
Activation of caspase 3/7 is an essential marker for both extrinsic and intrinsic apoptosis, and can be used to determine whether cell death occurs through the apoptotic pathway. […] To test this, caspase 3/7 activity was measured in SiHa cells following TRAIL, cisplatin and doxorubicin treatment in the presence or absence of myricetin or spinacine.
Cells were plated into 96-well plates at a density of 2×10^4 cells per well and incubated overnight. […] Caspase 3/7 activity was measured using the […] for caspase 3/7 activity (Promega, Fitchburg, Wis., USA) following the manufacturer's instructions. […] The resulting difference was expressed as a percentage of the caspase activity of the untreated cells.

Data set [2] has as its system SiHa cells. Briefly: in vitro. The procedure: (§1) FIGS. 3A-E are graphs providing data regarding resistance of HPV^+ SiHa cells to TRAIL-, cisplatin- and […] apoptosis, in the presence and absence of small molecules as disclosed herein. (FIG. 3A) HPV^+ SiHa cells are resistant to TRAIL-induced apoptosis as compared to the human osteosarcoma cell line U2OS. Cells (2×10^4 cells per well) were seeded into a 96-well plate, allowed to incubate overnight, and then treated with indicated concentration of TRAIL in the presence of cycloheximide (5 μg/ml). The viability of cells was measured after overnight incubation using the MTT assay; the viability of cells untreated with TRAIL was set at 100% for each group. (FIG. 3B) The indicated concentrations of three small molecules were added to SiHa cells, and an MTT assay was preformed after overnight incubation. The viability of cells untreated with small molecules was set as 100%. (FIG. 3C) The indicated concentrations of myricetin or spinacine were added 4 h prior to TRAIL (100 ng/ml) in the presence of cycloheximide (5 μg/ml) and incubated at 37° C. overnight. The viability of cells untreated with small molecules was set at 100%. (FIG. 3D and FIG. 3E) SiHa cells (2×10^4 cells per well) were seeded into a 96-well plate and allowed to incubate overnight. 100 μM of myricetin and 50 μM of spinacine were added 4 h prior to either (FIG. 3D) doxorubicin or (FIG. 3E) cisplatin. Cell viability was measured after overnight incubation using the MTT assay, and the viability of cells untreated with either myricetin or spinacine was set at 100%. Experiments were performed in triplicate, and error bars indicate the standard deviation.
The molecules were then tested to determine whether those that block E6/caspase 8 binding in vitro could also act in the context of a cell. SiHa cells are an HPV^+ cell line, derived from a cervical carcinoma, which serves as a commonly used model for HPV-associated malignancies. To determine whether HPV^+ SiHa cells are resistant to TRAIL-induced apoptosis, SiHa cells were treated with TRAIL and cell viability was assessed. TRAIL-sensitive, HPV^− U2OS cells served as a positive control. […] Myricetin and/or spinacine were tested to determine if they could sensitize these HPV^+ cells to TRAIL-induced apoptosis. […] Table 2 lists and compares the concentrations of the three tested compounds required to induce death in 50% of SiHa cells in the presence or absence of TRAIL.
The extracellular domain of human TRAIL was cloned into a pTriEx expression plasmid containing N-terminal Hisx6 tag. His-TRAIL was expressed in the E. coli BL-21 pLys strain and purified as previously described. Doxorubicin and cisplatin were purchased from Sigma. His-TRAIL, doxorubicin, and cisplatin were diluted in PBS to the desired concentration before using. To measure cell survival following treatment with TRAIL, cisplatin and doxorubicin, SiHa (2×10^4/well), C33A (1×10^4/well), and HNSCC cells (2×10^4/well) were seeded into 96-well plates and allowed to adhere overnight. Small molecules at the desired concentration were added and incubated at 37° C. for 4 h. As indicated, TRAIL, cisplatin or doxorubicin was then added. […] All experiments were repeated at least three times (three biological replicates, carried out on different days), with each experimental group measured in triplicate within each of these individual experiments. […]

The test system of data set [3] is SiHa cells. Briefly: MTT cell viability, SiHa cells with doxorubicin or cisplatin. The conditions noted are these: 100 μM myricetin, 50 μM spinacine added 4 h prior; compared to negative control. The procedure:
as §1, with “(FIG. 3C) The indicated concentrations of myricetin or spinacine were added 4 h prior to TRAIL (100 ng/ml) in the presence of cycloheximide (5 μg/ml) and incubated at 37° C. overnight. The viability of cells untreated with small molecules was set at 100%. (FIG. 3D and FIG. 3E) SiHa cells (2×10^4 cells per well) were seeded into a 96-well plate and allowed to incubate overnight. 100 μM of myricetin and 50 μM of spinacine were added 4 h prior to either (FIG. 3D) doxorubicin or (FIG. 3E) cisplatin.” left out, “Experiments were performed in triplicate, and error bars indicate the standard deviation.” left out
The extracellular domain of human TRAIL was cloned into a pTriEx expression plasmid containing N-terminal Hisx6 tag. […] All experiments were repeated at least three times (three biological replicates, carried out on different days), with each experimental group measured in triplicate within each of these individual experiments. […]

In the case of `O=C(O)C1Cc2[nH]cnc2CN1` (stereo not drawn) [Compound 5, 4,5,6,7-Tetrahydro-1H-imidazo(4,5-c)pyridine-6-carboxylic acid], the “caspase 3/7 activity when combined with TRAIL (in words)” value in data set [1] is “increased significantly”. In the data set on SiHa cells [2], the “toxicity to SiHa cells in the absence of TRAIL (in words)” value was “low toxicity”. Besides, the “sensitivity of SiHa cells to doxorubicin and cisplatin (in words)” value in the data set with SiHa cells [3] is recorded as “increased the sensitivity”.

For the compound `O=c1c(O)c(-c2cc(O)c(O)c(O)c2)oc2cc(O)cc(O)c12` [Myricetin, reference compound], the “caspase 3/7 activity when combined with TRAIL (in words)” value in data set [1] is reported as “increased significantly”. Besides, the “toxicity to SiHa cells in the absence of TRAIL (in words)” value in the data set with SiHa cells [2] is “low toxicity”. Besides, in the data set on SiHa cells [3], the “sensitivity of SiHa cells to doxorubicin and cisplatin (in words)” value was “increased the sensitivity”.
